Target: T1, 5-Lipoxygenase (Homo sapiens, UniProt P09917)
T1 construct: Human heparinized whole blood was preincubated with test compounds; from tissue; host or cells: human heparinized whole blood
T1 sequence (P09917 1-674): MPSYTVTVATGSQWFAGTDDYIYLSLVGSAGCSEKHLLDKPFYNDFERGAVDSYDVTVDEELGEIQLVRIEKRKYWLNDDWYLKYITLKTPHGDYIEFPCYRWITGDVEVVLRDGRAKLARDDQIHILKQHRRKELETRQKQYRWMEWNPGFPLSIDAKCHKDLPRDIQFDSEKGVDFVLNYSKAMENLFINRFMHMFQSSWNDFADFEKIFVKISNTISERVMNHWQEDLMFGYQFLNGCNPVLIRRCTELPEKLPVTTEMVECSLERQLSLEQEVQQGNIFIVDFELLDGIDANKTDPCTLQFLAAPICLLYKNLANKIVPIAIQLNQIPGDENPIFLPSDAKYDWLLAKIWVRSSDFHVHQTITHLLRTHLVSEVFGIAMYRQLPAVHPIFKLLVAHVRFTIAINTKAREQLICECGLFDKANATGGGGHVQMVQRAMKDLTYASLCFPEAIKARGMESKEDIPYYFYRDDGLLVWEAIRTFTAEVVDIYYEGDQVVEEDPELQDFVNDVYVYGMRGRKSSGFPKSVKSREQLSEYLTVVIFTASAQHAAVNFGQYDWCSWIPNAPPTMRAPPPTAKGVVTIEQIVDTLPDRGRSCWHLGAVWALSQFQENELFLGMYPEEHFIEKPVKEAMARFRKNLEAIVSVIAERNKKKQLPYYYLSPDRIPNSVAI
Assay: Inhibition of calcium ionophore A23187-induced LTB4 biosynthesis in human whole blood
Type: cell-based
Conditions: human heparinized whole blood, 15 min preincubation 37° C., A23187 8.3 μM, 30 min
Method: Inhibition of leukotriene biosynthesis was evaluated in an assay, involving calcium ionophore-induced LTB4 biosynthesis expressed human whole blood. Human heparinized whole blood was preincubated with test compounds or vehicle for 15 min 37° C. followed by calcium ionophore A23187 challenge (final concentration of 8.3 μM) and the reaction terminated after 30 min by adding two volumes of methanol containing prostaglandin B2 as an internal recovery standard. The methanol extract was analyzed for LTB4 using a commercially available radioimmunoassay.

SMILES: CON=C(c1cc(F)cc(OCc2ccc(N(C)C(=O)N(C)C)cc2)c1)C1CCOCC1 [Example 5, E- and Z-O-Methyl-4-[(3-(4-N',N'-dimethylaminocarbonyl-N-methylamino)benzyloxy)-5-fluoro-phenyl)oximinomethyl]tetrahydropyran]
- In vitro inhibitory potency against 5-lipoxygenase from stimulated LTB4 formation in human whole blood (percent inhibition) (@ 0.78 μM): 100%

SMILES: CON=C(c1cc(F)cc(OCc2cccc(N(C)C(=O)N(C)C)c2)c1)C1CCOCC1 [Example 43, E- and Z-O-Methyl-4-[(3-(3-(N',N'-dimethylaminocarbonyl-N-methylamino)-benzyloxy)-5-fluoro-phenyl)oximinomethyl]tetrahydropyran]
- In vitro inhibitory potency against 5-lipoxygenase from stimulated LTB4 formation in human whole blood (percent inhibition) (@ 3.13 μM): 12%

SMILES: CON=C(c1cc(F)cc(OCc2ccc(N(C)C(C)=O)cc2)c1)C1CCOCC1 [Example 1, E- and Z-O-Methyl-4-[(3-(4-(N-acetyl-N-methylamino)benzyloxy)-5-fluoro-phenyl)oximinomethyl]tetrahydropyran]
- In vitro inhibitory potency against 5-lipoxygenase from stimulated LTB4 formation in human whole blood (percent inhibition) (@ 1.56 μM): 100%

— US5484786A, “Pyran-4-ylmethyl substituted arylalkylaryl-, arylalkenylylaryl-, and arylalkynylarylurea inhibitors of 5-lipoxygenase” (Abbott Laboratories, priority 1993, dated 1996)
